What was measured:
[1] = Antioxidant activity assessed as DPPH scavenging activity after 30 mins by spectrophotometry; assay type: physicochemical
[2] = Antioxidant activity assessed as ABTS scavenging activity after 6 mins by spectrophotometry; assay type: physicochemical
[3] = Antioxidant activity assessed as DMPD scavenging activity after 15 mins by spectrophotometry; assay type: physicochemical
[4] = Antiinflammatory activity in human erythrocytes assessed as inhibition of hypotonic solution-induced hemolysis after 10 mins by spectrophotometry; assay type: functional, cell-based; details: erythrocyte

SMILES | IC50 [1] [uM/ml] | IC50 [2] [uM/ml] | IC50 [3] [uM/ml] | IC50 [4] [uM/ml]
O=C(O)CCc1nc(O)c2ccccc2n1 | 1100 | – | – | –
COc1cc(/C=N/NC(=O)CCc2nc3ccccc3c(=O)[nH]2)cc(OC)c1O | 126 | 105 | 275 | 530
O=C(O)CCCc1nc2ccccc2c(=O)[nH]1 | 1250 | – | – | –
COC(=O)CCc1nc2ccccc2c(=O)[nH]1.Cl | 862 | – | – | 1163
COC(=O)CCCc1nc2ccccc2c(=O)[nH]1.Cl | 772 | 280 | – | 975
O=C(CCc1nc2ccccc2c(=O)[nH]1)N/N=C/c1ccccc1 | 734 | 265 | – | –
O=C(CCCc1nc2ccccc2c(=O)[nH]1)N/N=C/c1ccccc1 | 568 | 240 | – | –
O=C(CCc1nc2ccccc2c(=O)[nH]1)N/N=C/c1ccc(Cl)cc1 | 381 | 185 | – | 84
O=C(CCCc1nc2ccccc2c(=O)[nH]1)N/N=C/c1ccc(Cl)cc1 | 353 | – | – | 67
O=C(CCc1nc2ccccc2c(=O)[nH]1)N/N=C/c1ccc([N+](=O)[O-])cc1 | 328 | 220 | – | 54
O=C(CCCc1nc2ccccc2c(=O)[nH]1)N/N=C/c1ccc([N+](=O)[O-])cc1 | 316 | 270 | – | 52
O=C(CCc1nc2ccccc2c(=O)[nH]1)N/N=C/c1ccc(O)cc1 | 238 | 105 | 300 | –
O=C(CCCc1nc2ccccc2c(=O)[nH]1)N/N=C/c1ccc(O)cc1 | 214 | 170 | – | –
COc1ccc(/C=N/NC(=O)CCc2nc3ccccc3c(=O)[nH]2)cc1 | 214 | 75 | – | –
COc1ccc(/C=N/NC(=O)CCCc2nc3ccccc3c(=O)[nH]2)cc1 | 247 | 180 | 280 | –
O=C(CCc1nc2ccccc2c(=O)[nH]1)N/N=C/c1ccc(O)c(O)c1 | 113 | 40 | 105 | 255
O=C(CCCc1nc2ccccc2c(=O)[nH]1)N/N=C/c1ccc(O)c(O)c1 | 95 | 50 | 75 | 300
COc1cc(/C=N/NC(=O)CCc2nc3ccccc3c(=O)[nH]2)ccc1O | 204 | 95 | 290 | –
COc1cc(/C=N/NC(=O)CCCc2nc3ccccc3c(=O)[nH]2)ccc1O | 236 | 115 | 280 | –
COc1cc(/C=N/NC(=O)CCCc2nc3ccccc3c(=O)[nH]2)cc(OC)c1O | 97 | 135 | 225 | 524
COc1cc(/C=N/NC(=O)CCc2nc3ccccc3c(=O)[nH]2)cc(O)c1O | 104 | 40 | 50 | 261
COc1cc(/C=N/NC(=O)CCCc2nc3ccccc3c(=O)[nH]2)cc(O)c1O | 88 | 50 | 80 | 277
COc1cc(/C=N/NC(=O)CCc2nc3ccccc3c(=O)[nH]2)cc(OC)c1OC | 85 | 55 | 80 | 682
COc1cc(/C=N/NC(=O)CCCc2nc3ccccc3c(=O)[nH]2)cc(OC)c1OC | 106 | 60 | 85 | 613
O=C(CCc1nc2ccccc2c(=O)[nH]1)N/N=C/c1cc(O)c(O)c(O)c1 | 81 | 35 | 45 | 203
O=C(CCCc1nc2ccccc2c(=O)[nH]1)N/N=C/c1cc(O)c(O)c(O)c1 | 78 | 40 | 45 | 183
O=C1O[C@H]([C@@H](O)CO)C(O)=C1O [ASCORBIC ACID] | – | 65 | 140 | –
CC(=O)Oc1ccccc1C(=O)O [ASPIRIN] | – | – | – | 166
Cc1cc(C(C)(C)C)c(O)c(C(C)(C)C)c1 [BUTYLATED HYDROXYTOLUENE] | 114 | – | – | –
O=C(O)c1cc(O)c(O)c(O)c1 [GALLIC ACID] | – | 60 | 100 | –

Reference: ChEMBL document CHEMBL3397041, “Schiff's bases of quinazolinone derivatives: Synthesis and SAR studies of a novel series of potential anti-inflammatory and antioxidants” (Bioorg Med Chem Lett, 2015)
